# Assay results taken from patent publication US20180344725A1, “QUINOLONE CHALCONE COMPOUNDS AND USES THEREOF” (priority 2015, published 2018).
# Experiments:
# MDA-MB-231 = assay: SRB-based cytotoxicity assay; format: cell-based, human
# Protocol: (§1) For (anti)proliferation assays, 4,000-5,000 cells/well of the 96-well clustered dish were incubated for 16 hours, as described previously (Hu et al., 2008; Skehan et al., 1990). After 16 hours, culture medium was replaced with fresh medium containing different dilutions of test compounds dissolved in DMSO. Some wells were treated with 100 μl of 10% trichloroacetic acid (TCA) as a negative control and sham (medium with dimethyl sulfoxide; DMSO) treated cells were used as a positive control. After 72 hours post-incubation, medium was removed and cells were fixed with 10% TCA at 4° C. for 1 hour. TCA was removed and cells were washed with cold tap water, and plate was air-dried, followed by addition of 50 μl of 0.4% SRB staining solution to each well. After 30 minutes incubation, SRB staining solution was removed. Cells were washed with 1% acetic acid solution, and then washed with tap water to remove unbound staining solution, followed by air-drying. 200 μl of 10 mM (pH10.5) trizma base buffer was added to each well to solubilise macromolecules. SRB stained macromolecules were determined at a 540 nm wavelength using an automated plate reader (Synergy H4 Hybrid Multi-Mode Microplate Reader, BioTek, Winooski, Vt.). Cell growth (inhibition) was calculated by the following formula:
# (§2) % cells proliferation=[(AT−CT)/(ST−CT)]×100
# (§3) wherein AT=absorbance of treated cells, CT=absorbance of negative control cells, and ST=absorbance of sham treated cells. IC50 values were calculated from sigmoidal dose-response curves generated by two independent biological replicates, with quadruplicate in each set by using Graph Pad Prism v.5.04 software. […] The combinational index (CI) was calculated as described previously (Chou 2006). If the CI values were less than, equal to or more than 1, it indicates a synergistic, additive or antagonistic effect respectively (Chou 2006). CI values were determined from four independent experiments.
# MDA-MB-468 = assay: SRB-based cytotoxicity assay; format: cell-based, human; settings: MDA-MB-468, SRB, Table 2
# Protocol: as §1, §2, §3
# MCF-7 = assay: SRB-based cytotoxicity assay; format: cell-based, human
# Protocol: as §1, §2, §3
# 184B5 = assay: SRB-based cytotoxicity assay; format: cell-based; settings: 184B5 non-cancer
# Protocol: as §1, §2, §3
# MCF-10A = assay: SRB-based cytotoxicity assay; format: cell-based; settings: Homo sapiens, MCF-10A; MCF10A non-cancer; 72 hours; Table 4
# Protocol: as §1, §2, §3
# RPMI-8226BTZR = assay: Killing of bortezomib-resistant multiple myeloma cells; format: cell-based
# Excerpt: The RPMI-8226BTZR over-expresses β1, β2 and β5 peptides of the 20S subunit. […] However, RPMI-8226BTZR is sensitive to CTR-20, CTR-21 and CTR-32 (FIG. 36).
# MDA-MB231TaxR = assay: SRB-based cytotoxicity assay, single and combination with paclitaxel; format: cell-based; settings: TaxR selected in 100.0 nM paclitaxel
# Protocol: All of the cell lines used were purchased from ATCC and cultured in RPMI-1640 supplemented with 10% fetal bovine serum and antibiotics (100 units penicillin/100 μg/ml streptomycin), unless stated otherwise. 1845B5 and MCF-10A non-cancer breast cell lines were cultured in DME/F12 medium supplemented with 10% fetal bovine serum, antibiotics and growth factors. […] The human small cell lung carcinoma H69 cell line and its multidrug-resistant MRP1-overexpressing isogenic H69AR cell line were purchased from ATCC. […] H69 cells grow as large multi-cell aggregates, making it difficult to accurately count cell numbers. […] The IL-6 dependent bortezomib-resistant ANBL6-BR cell line was further supplemented with 1 ng/ml of IL-6. The MCF10AT1 and MCF10CA1a cell lines are isogenic to the MCF10A cell line, and obtained from Dr. Valerie Weaver at the Center for Bioengineering and Tissue Regeneration, UCSF, CA, USA. MCF10AT1 is a premalignant cell line generated by transforming MCF10A with c-Ha-Ras; and MCF10CA1a was isolated by selecting malignant cells after MCF10AT1 cells were engrafted into mice (Liu & Lin 2004; […] et al. 2009). […] The drug-resistant cells were cultured in the absence of drug for at least one passage before carrying out experiments. All cells were maintained in a humidified incubator at 37° C. […] Cell line authentication was performed using short tandem repeat (STR) profiling. For (anti)proliferation assays, 4,000-5,000 cells/well of the 96-well clustered dish were incubated for 16 hours, as described previously (Hu et al., 2008; Skehan et al., 1990). […] Some wells were treated with 100 μl of 10% trichloroacetic acid (TCA) as a negative control and sham (medium with dimethyl sulfoxide; DMSO) treated cells were used as a positive control. […] TCA was removed and cells were washed with cold tap water, and plate was air-dried, followed by addition of 50 μl of 0.4% SRB staining solution to each well. After 30 minutes incubation, SRB staining solution was removed. Cells were washed with 1% acetic acid solution, and then washed with tap water to remove unbound staining solution, followed by air-drying. 200 μl of 10 mM (pH10.5) trizma base buffer was added to each well to solubilise macromolecules. […] Cell growth (inhibition) was calculated by the following formula: % cells proliferation=[(AT-CT)/(ST-CT)]×100 wherein AT=absorbance of treated cells, CT=absorbance of negative control cells, and ST=absorbance of sham treated cells. […] The combinational index (CI) was calculated as described previously (Chou 2006). […] CI values were determined from four independent experiments.
# HeLa = assay: SRB-based cytotoxicity assay; format: cell-based; settings: Homo sapiens; HeLa; 72 hours; Table 4
# Protocol: as §1, §2, §3
# RPMI-8226 (myeloma) = assay: SRB-based cytotoxicity assay; format: cell-based; settings: Homo sapiens, 72 hours, Table 4
# Protocol: as §1, §2, §3
# [1] = Homo sapiens, 72 hours, Table 4
SMILES,IC50 (MCF-10A) [nM],IC50 (184B5; [1]) [nM],other results
"CCN(CC)CCCC(C)Nc1ccnc2cc(Cl)ccc12 (stereo not shown) [Chloroquine, reference compound]",–,–,"IC50 (MDA-MB-231; Homo sapiens, MDA-MB-231, SRB, Table 2): 22500 nM; IC50 (MDA-MB-468; Homo sapiens): 28600 nM; IC50 (MCF-7; Homo sapiens, MCF7, MCF-7, SRB, Table 2): 38400 nM; IC50 (184B5; Homo sapiens, SRB, Table 2): 76100 nM"
COc1cc2cc(/C=C/C(=O)c3ccccc3OC)c(=O)[nH]c2cc1OC [CTR-24],2100 ± 390,2370 ± 190,–
COc1cc(F)ccc1C(=O)/C=C/c1cc2ccccc2[nH]c1=O [CTR-30],2790 ± 590,2460 ± 140,–
COc1ccc(OC)c(C(=O)/C=C/c2cc3ccccc3[nH]c2=O)c1 [CTR-26],910 ± 30,770 ± 110,–
"CC(C)C[C@H](NC(=O)[C@H](Cc1ccccc1)NC(=O)c1cnccn1)B(O)O [bortezomib, reference compound]",–,–,resistance of RPMI-8226BTZR compared to RPMI-8226 parental cells (RPMI-8226BTZR): approximately 28 fold
"COc1cc2c(c(OC)c1OC)-c1ccc(OC)c(=O)cc1[C@@H](NC(C)=O)CC2 [Colchicine, reference compound]",–,–,killing of MDA-MB231TaxR compared with parental MDA-MB231 (MDA-MB231TaxR): to the same degree as the parental MDA-MB231 cells
COc1ccc2[nH]c(=O)c(/C=C/C(=O)c3cc(F)ccc3OC)cc2c1 [CTR-37],460 ± 110,440 ± 20,–
"CN(C)CC[C@H](CSc1ccccc1)Nc1ccc(S(=O)(=O)NC(=O)c2ccc(N3CCN(Cc4ccccc4-c4ccc(Cl)cc4)CC3)cc2)cc1[N+](=O)[O-] [ABT-737, reference compound]",–,–,"Cell survival rate (MDA-MB-231; single agent 3.125 μM, MDA-MB231): 98.61 ± 3.93; Cell survival rate (MDA-MB-231; single agent 6.25 μM, MDA-MB231): 91.01 ± 9.81"
COc1ccc(C(=O)/C=C/c2cc3ccccc3[nH]c2=O)c(OC)c1 [CTR-27],2520 ± 30,2800 ± 180,"IC50 (MDA-MB-231; MDA-MB231, 72 hours, Table 4): 2690 ± 240 nM"
"COc1cccc(OC)c1C(=O)/C=C/c1cc2ccccc2[nH]c1=O [CTR-25, (E)-3-(3-(2,6-dimethoxyphenyl)-3-oxoprop-1-enyl)quinolin-2(1H)-one]",2640 ± 150,2640 ± 170,–
"CCOc1ccccc1C(=O)/C=C/c1cc2cc(OC)ccc2[nH]c1=O [CTR-40, (E)-3-(3-(2-ethoxyphenyl)-3-oxoprop-1-enyl)-6-methoxyquinolin-2(1H)-one]",70,100 ± 10,–
COc1ccc2[nH]c(=O)c(/C=C/C(=O)c3ccc(F)cc3OC)cc2c1 [CTR-38],110,160 ± 20,–
COc1ccc(F)cc1C(=O)/C=C/c1cc2ccccc2[nH]c1=O [CTR-29],270 ± 50,280 ± 10,–
COc1ccc(C(=O)/C=C/c2cc3cc(OC)ccc3[nH]c2=O)c(OC)c1 [CTR-35],2880 ± 540,4290 ± 60,–
"N.N.[Cl][Pt][Cl] [Cisplatin, reference compound]",–,–,"IC50 (MDA-MB-231; MDA-MB-231, SRB, Table 2): 23600 nM; IC50 (MDA-MB-468): 31000 nM; IC50 (MCF-7; MCF-7, SRB, Table 2): 25800 nM; IC50 (184B5; SRB, Table 2): 25500 nM"
COc1ccccc1C(=O)/C=C/c1cc2cc(C)c(C)cc2[nH]c1=O [CTR-23],1120 ± 40,1320 ± 30,"IC50 (MDA-MB-231; Homo sapiens, MDA-MB-231, MDA-MB231, 72 hours, Table 4): 1520 ± 120 nM; IC50 (MCF-7; Homo sapiens, MCF7, 72 hours, Table 4): 500 ± 100 nM; IC50 (HeLa): 640 ± 50 nM; IC50 (RPMI-8226 (myeloma)): 1410 ± 150 nM"
COc1ccc(OC)c(C(=O)/C=C/c2cc3cc(OC)ccc3[nH]c2=O)c1 [CTR-34],980 ± 40,1160 ± 100,–
COc1ccc2[nH]c(=O)c(/C=C/C(=O)c3ccc(OC(F)(F)F)cc3OC)cc2c1 [CTR-36],1350 ± 160,1840 ± 70,–
